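Five compound concentrations were applied to cells in 96-well plates for 48 hours; endpoints were derived by simple linear interpolation of the resulting dose-response curve. GI50: concentration for 50% inhibition of growth. At the TGI there is no net growth.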
Experiments:
Test in all cases: DTP human tumour cell line panel, 48 h
786-0 renal = tested on: 786-0 renal
A498 renal = tested on: A498 renal
A549 NSCLC = tested on: A549 NSCLC
ACHN renal = tested on: ACHN renal
BT-549 breast = tested on: BT-549 breast
CAKI-1 renal = tested on: CAKI-1 renal
CCRF-CEM leukemia = tested on: CCRF-CEM leukemia
COLO 205 colon = tested on: COLO 205 colon
DU-145 prostate = tested on: DU-145 prostate
EKVX NSCLC = tested on: EKVX NSCLC
HCC-2998 colon = tested on: HCC-2998 colon
HCT-116 colon = tested on: HCT-116 colon
HCT-15 colon = tested on: HCT-15 colon
HL-60(TB) leukemia = tested on: HL-60(TB) leukemia
HOP-62 NSCLC = tested on: HOP-62 NSCLC
HOP-92 NSCLC = tested on: HOP-92 NSCLC
HS 578T breast = tested on: HS 578T breast
HT29 colon = tested on: HT29 colon
IGROV1 ovarian = tested on: IGROV1 ovarian
K-562 leukemia = tested on: K-562 leukemia
KM12 colon = tested on: KM12 colon
LOX IMVI melanoma = tested on: LOX IMVI melanoma
M14 melanoma = tested on: M14 melanoma
MALME-3M melanoma = tested on: MALME-3M melanoma
MCF7 breast = tested on: MCF7 breast
MDA-MB-231 breast = tested on: MDA-MB-231 breast
MDA-MB-435 = tested on: MDA-MB-435
MOLT-4 leukemia = tested on: MOLT-4 leukemia
NCI-H226 lung = tested on: NCI-H226 lung
NCI-H23 lung = tested on: NCI-H23 lung
NCI-H460 lung = tested on: NCI-H460 lung
NCI-H522 lung = tested on: NCI-H522 lung
NCI/ADR-RES ovarian = tested on: NCI/ADR-RES ovarian
OVCAR-3 ovarian = tested on: OVCAR-3 ovarian
OVCAR-4 ovarian = tested on: OVCAR-4 ovarian
OVCAR-5 ovarian = tested on: OVCAR-5 ovarian
OVCAR-8 ovarian = tested on: OVCAR-8 ovarian
PC-3 prostate = tested on: PC-3 prostate
RPMI-8226 leukemia = tested on: RPMI-8226 leukemia
RXF 393 renal = tested on: RXF 393 renal
SF-268 CNS = tested on: SF-268 CNS
SF-295 CNS = tested on: SF-295 CNS
SF-539 CNS = tested on: SF-539 CNS
SK-MEL-2 melanoma = tested on: SK-MEL-2 melanoma
SK-MEL-28 melanoma = tested on: SK-MEL-28 melanoma
SK-MEL-5 melanoma = tested on: SK-MEL-5 melanoma
SK-OV-3 ovarian = tested on: SK-OV-3 ovarian
SN12C renal = tested on: SN12C renal
SNB-19 CNS = tested on: SNB-19 CNS
SNB-75 CNS = tested on: SNB-75 CNS
SR leukemia = tested on: SR leukemia
SW-620 colon = tested on: SW-620 colon
T-47D breast = tested on: T-47D breast
TK-10 renal = tested on: TK-10 renal
U251 CNS = tested on: U251 CNS
UACC-257 melanoma = tested on: UACC-257 melanoma
UACC-62 melanoma = tested on: UACC-62 melanoma
UO-31 renal = tested on: UO-31 renal

For `COc1ccc(-c2cc(-c3ccc(Nc4nc(Nc5ccc(Cl)cc5)nc(Nc5ccc(Cl)cc5)n4)cc3)no2)cc1`, which GI50 (786-0 renal) is on record?
The GI50 was 5.42 µM.

What about the TGI (786-0 renal) of the same compound?
Its TGI is 25.5 µM.

And the GI50 (A498 renal)?
Its GI50 is 14 µM.

What about the TGI (A498 renal) of the same compound?
Its TGI is 61.1 µM.

What about the GI50 (A549 NSCLC) of the same compound?
The GI50 was 16.4 µM.

What about the TGI (A549 NSCLC) of the same compound?
The TGI was 84.7 µM.

What about the GI50 (ACHN renal) of the same compound?
Its GI50 is 27.6 µM.

And the TGI (ACHN renal)?
Its TGI is > 100 µM.

What about the GI50 (BT-549 breast) of the same compound?
The GI50 was 17.2 µM.

What about the TGI (BT-549 breast) of the same compound?
The TGI was 72 µM.

And the GI50 (CAKI-1 renal)?
The GI50 was 15.5 µM.

And the TGI (CAKI-1 renal)?
Its TGI is 62.3 µM.

What about the GI50 (CCRF-CEM leukemia) of the same compound?
The GI50 was 3.27 µM.

And the TGI (CCRF-CEM leukemia)?
Its TGI is 11.6 µM.

And the GI50 (COLO 205 colon)?
Its GI50 is 11.6 µM.

What about the TGI (COLO 205 colon) of the same compound?
Its TGI is 29.7 µM.

What about the GI50 (DU-145 prostate) of the same compound?
Its GI50 is 11.4 µM.

And the TGI (DU-145 prostate)?
Its TGI is 36.3 µM.

What about the GI50 (EKVX NSCLC) of the same compound?
Its GI50 is 10.2 µM.

What about the TGI (EKVX NSCLC) of the same compound?
The TGI was 85.6 µM.

What about the GI50 (HCC-2998 colon) of the same compound?
The GI50 was 2.37 µM.

And the TGI (HCC-2998 colon)?
The TGI was 8.25 µM.

What about the GI50 (HCT-116 colon) of the same compound?
The GI50 was 4.33 µM.

And the TGI (HCT-116 colon)?
Its TGI is 17.1 µM.

What about the GI50 (HCT-15 colon) of the same compound?
Its GI50 is 12.4 µM.

And the TGI (HCT-15 colon)?
The TGI was > 100 µM.

What about the GI50 (HL-60(TB) leukemia) of the same compound?
The GI50 was 1.87 µM.

What about the TGI (HL-60(TB) leukemia) of the same compound?
The TGI was 12.1 µM.

And the GI50 (HOP-62 NSCLC)?
The GI50 was 20.5 µM.

And the TGI (HOP-62 NSCLC)?
The TGI was 60.5 µM.

What about the GI50 (HOP-92 NSCLC) of the same compound?
Its GI50 is 1.91 µM.

And the TGI (HOP-92 NSCLC)?
The TGI was 6.26 µM.

What about the GI50 (HS 578T breast) of the same compound?
The GI50 was 20.3 µM.

And the TGI (HS 578T breast)?
The TGI was > 100 µM.

What about the GI50 (HT29 colon) of the same compound?
The GI50 was 15.1 µM.

What about the TGI (HT29 colon) of the same compound?
Its TGI is 59.9 µM.

What about the GI50 (IGROV1 ovarian) of the same compound?
Its GI50 is 6.3 µM.

What about the TGI (IGROV1 ovarian) of the same compound?
The TGI was 42.8 µM.

And the GI50 (K-562 leukemia)?
Its GI50 is 2.96 µM.

And the TGI (K-562 leukemia)?
Its TGI is 18.5 µM.

And the GI50 (KM12 colon)?
Its GI50 is 7.83 µM.

What about the TGI (KM12 colon) of the same compound?
The TGI was 30.3 µM.

And the GI50 (LOX IMVI melanoma)?
The GI50 was 12.2 µM.

And the TGI (LOX IMVI melanoma)?
Its TGI is 34.9 µM.

And the GI50 (M14 melanoma)?
The GI50 was 16.2 µM.

What about the TGI (M14 melanoma) of the same compound?
Its TGI is 53.7 µM.

What about the GI50 (MALME-3M melanoma) of the same compound?
The GI50 was 20.5 µM.

And the TGI (MALME-3M melanoma)?
The TGI was 49 µM.

What about the GI50 (MCF7 breast) of the same compound?
The GI50 was 7.86 µM.

What about the TGI (MCF7 breast) of the same compound?
Its TGI is 47.5 µM.

And the GI50 (MDA-MB-231 breast)?
The GI50 was 16.4 µM.

What about the TGI (MDA-MB-231 breast) of the same compound?
Its TGI is > 100 µM.

And the GI50 (MDA-MB-435)?
Its GI50 is 10.3 µM.

What about the TGI (MDA-MB-435) of the same compound?
Its TGI is 37 µM.

And the GI50 (MOLT-4 leukemia)?
The GI50 was 1.39 µM.

What about the TGI (MOLT-4 leukemia) of the same compound?
The TGI was 5.44 µM.

And the GI50 (NCI-H226 lung)?
The GI50 was 19.8 µM.

What about the TGI (NCI-H226 lung) of the same compound?
The TGI was 49.2 µM.

And the GI50 (NCI-H23 lung)?
The GI50 was 11.7 µM.

What about the TGI (NCI-H23 lung) of the same compound?
Its TGI is 28.1 µM.

What about the GI50 (NCI-H460 lung) of the same compound?
The GI50 was 5.58 µM.

And the TGI (NCI-H460 lung)?
The TGI was 25.2 µM.

And the GI50 (NCI-H522 lung)?
Its GI50 is 7.67 µM.

What about the TGI (NCI-H522 lung) of the same compound?
Its TGI is 25.5 µM.

And the GI50 (NCI/ADR-RES ovarian)?
The GI50 was 16.3 µM.

And the TGI (NCI/ADR-RES ovarian)?
The TGI was 53.9 µM.

What about the GI50 (OVCAR-3 ovarian) of the same compound?
Its GI50 is 11.2 µM.

And the TGI (OVCAR-3 ovarian)?
The TGI was 38.9 µM.

What about the GI50 (OVCAR-4 ovarian) of the same compound?
The GI50 was 14.7 µM.

What about the TGI (OVCAR-4 ovarian) of the same compound?
Its TGI is > 100 µM.

And the GI50 (OVCAR-5 ovarian)?
Its GI50 is 19.1 µM.

And the TGI (OVCAR-5 ovarian)?
The TGI was 73.5 µM.

And the GI50 (OVCAR-8 ovarian)?
Its GI50 is 12.6 µM.

And the TGI (OVCAR-8 ovarian)?
Its TGI is 55.3 µM.

And the GI50 (PC-3 prostate)?
Its GI50 is 3.65 µM.

What about the TGI (PC-3 prostate) of the same compound?
The TGI was 25.5 µM.

And the GI50 (RPMI-8226 leukemia)?
Its GI50 is 13.1 µM.

What about the TGI (RPMI-8226 leukemia) of the same compound?
Its TGI is 48.2 µM.

And the GI50 (RXF 393 renal)?
The GI50 was 3.67 µM.

What about the TGI (RXF 393 renal) of the same compound?
The TGI was 20.3 µM.

And the GI50 (SF-268 CNS)?
The GI50 was 9.3 µM.

What about the TGI (SF-268 CNS) of the same compound?
Its TGI is 38.2 µM.

What about the GI50 (SF-295 CNS) of the same compound?
Its GI50 is 11.4 µM.

What about the TGI (SF-295 CNS) of the same compound?
Its TGI is 39.5 µM.

And the GI50 (SF-539 CNS)?
The GI50 was 17.2 µM.

And the TGI (SF-539 CNS)?
Its TGI is 57.8 µM.

What about the GI50 (SK-MEL-2 melanoma) of the same compound?
The GI50 was 17.1 µM.

What about the TGI (SK-MEL-2 melanoma) of the same compound?
Its TGI is 57.5 µM.

What about the GI50 (SK-MEL-28 melanoma) of the same compound?
The GI50 was 11.7 µM.

What about the TGI (SK-MEL-28 melanoma) of the same compound?
Its TGI is 41.4 µM.

What about the GI50 (SK-MEL-5 melanoma) of the same compound?
Its GI50 is 5.08 µM.

And the TGI (SK-MEL-5 melanoma)?
Its TGI is 20.3 µM.

And the GI50 (SK-OV-3 ovarian)?
The GI50 was 25.8 µM.

And the TGI (SK-OV-3 ovarian)?
The TGI was 79.4 µM.

What about the GI50 (SN12C renal) of the same compound?
Its GI50 is 20.2 µM.

And the TGI (SN12C renal)?
The TGI was > 100 µM.

What about the GI50 (SNB-19 CNS) of the same compound?
Its GI50 is 27.4 µM.

And the TGI (SNB-19 CNS)?
Its TGI is > 100 µM.

And the GI50 (SNB-75 CNS)?
Its GI50 is 35.2 µM.

And the TGI (SNB-75 CNS)?
Its TGI is > 100 µM.

And the GI50 (SR leukemia)?
Its GI50 is 2.06 µM.

What about the TGI (SR leukemia) of the same compound?
The TGI was 6.5 µM.

And the GI50 (SW-620 colon)?
Its GI50 is 11.3 µM.

What about the TGI (SW-620 colon) of the same compound?
Its TGI is 25.6 µM.

And the GI50 (T-47D breast)?
Its GI50 is 6.26 µM.

And the TGI (T-47D breast)?
The TGI was > 100 µM.

What about the GI50 (TK-10 renal) of the same compound?
Its GI50 is 20.4 µM.

And the TGI (TK-10 renal)?
Its TGI is 72.7 µM.

And the GI50 (U251 CNS)?
Its GI50 is 11.2 µM.

And the TGI (U251 CNS)?
Its TGI is > 100 µM.

And the GI50 (UACC-257 melanoma)?
The GI50 was 33.2 µM.

What about the TGI (UACC-257 melanoma) of the same compound?
The TGI was > 100 µM.

And the GI50 (UACC-62 melanoma)?
The GI50 was 23.1 µM.

And the TGI (UACC-62 melanoma)?
The TGI was 57.6 µM.

And the GI50 (UO-31 renal)?
The GI50 was 5.36 µM.

And the TGI (UO-31 renal)?
The TGI was 35.2 µM.
